Counter-ions that a name gives are not always drawn.
Legend:
[1] = system: Wistar rats with dimethyl hydrazine-induced colorectal cancer; test: Aberrant crypt foci (ACF) count in dimethyl hydrazine-induced colorectal cancer rats (Example 1); assay type: in vivo; conditions: for ACF AC = 1 / ACF AC = 2 / ACF AC = 3 / ACF AC ≧ 4 / The total number of ACF: DMH rats, week 18; for inhibitory effect on ACF, trend with dose: low, medium, high dose groups, end of week 18
Description: (§1) Wistar rats with dimethyl hydrazine-induced colorectal cancer were used as the model to study the chemoprevention by the combined administration of vitamin D3 and metformin hydrochloride for colorectal cancer and the effect on colorectal cancer.
(§2) Experimental animals were randomly divided into 11 groups (each group having 10), including blank control group, model control group, low, medium and high dose groups of vitamin D3, low, medium and high dose groups of metformin, and three groups of different doses of vitamin D3 in combination with metformin. Except for the blank control group, other groups were subcutaneously injected with dimethyl hydrazine once a week respectively for 18 weeks, to induce colorectal cancer model. Dimethylhydrazine was dissolved in sodium chloride injection, and into the solution, 5% NaOH solution was added to adjust pH to 6.5-7.0, thereby obtaining a 20 mg/ml solution. The resulting solution was filtered through 0.22 μm membrane, and prepared extemporaneously.
(§3) Vitamin D3 was prepared into 10-100 U/ml solution by using soybean oil, and intragastrically administrated, once a day. Metformin was prepare into 10-100 mg/ml solution, and administrated intragastrically, once a day. The above drugs were administrated from day 0.
(§4) All the animals were sacrificed at the end of 18th weeks after administration. Body weights were recorded once a week during the experiment, and the administrated dose was calculated based on the body weight. The animals that died during the experiment were dissected and observed.
(§5) 3.2.2 The large intestine was separated immediately after the animals were sacrificed, the contents of the intestine were washed away with saline, and colorectal tumors were visually observed to calculate the number of tumors. The entire colon was paved between two layers of filter paper, placed in 10% neutral formalin and fixed for 24-48 h. The fixed large intestine tissue was put into 0.2% methylene blue and stained for 10 s. The aberrant crypt foci (ACF) of the whole large intestine were immediately observed under an optical microscope, and the number of the aberrant crypt in foci was counted respectively as one, two, three and four as well as greater than four.
(§6) 3.2.3 The data were processed by using Excel 2003 software for statistical analysis, and the obtained data were represented by mean±standard deviation (mean±SD). P<0.05 means that there is statistically significant difference between two groups.

[2] = system: Wistar rats with dimethyl hydrazine-induced colorectal cancer; test: Tumorigenesis and tumor inhibition rate in dimethyl hydrazine-induced colorectal cancer rats (Example 1); assay type: in vivo; conditions: for Mean number of tumors / Number of Animals with tumor: DMH rats; for Mean number of tumors / Number of Animals with tumor / Inhibition rate(%): week 18; for Number of Animals with tumor: of 10 animals; for Inhibition rate(%): tumor number vs model control
Description: as §1, §2, §3, §4, §5, §6

[3] = system: Wistar rats with dimethyl hydrazine-induced colorectal cancer; test: Tumorigenesis and inhibition rate, drugs administrated from day 15 (Example 9); assay type: in vivo; conditions: drugs from day 15
Procedure: Example 1 was repeated, except that: The experimental animals were randomly divided into 11 groups, with 8 in each group. Except for the blank control group, other groups were subcutaneously injected of dimethylhydrazine once a week for 18 weeks to induce colorectal cancer model. Vitamin D3 was prepared into 10-100 U/ml solution by using soybean oil, and intragastrically administrated, once a day. Metformin was prepare into 10-100 mg/ml solution, and administrated orally, once a day. The above drugs were administrated from day 15 (after two weeks). During the experiments, tumorigenesis and inhibition rate were observed.

[4] = General situation and body weight of the rats (Example 1); conditions: DMH rats; for Weight gain: after 18 weeks; for Body weight Week 0: baseline
Description: as §2, §3, §4
3.2.1 The animals were observed daily to record the general conditions, such as mental activity, food-taking, feces, hair, and the like.

[5] = high dose group, metformin hydrochloride 360 mg/kg intragastrically once a day
[6] = low dose group, metformin hydrochloride 40 mg/kg intragastrically once a day
[7] = medium dose group, metformin hydrochloride 120 mg/kg intragastrically once a day
[8] = low, medium, high dose groups, end of week 18
[9] = high dose group, Vitamin D 300 U/kg intragastrically once a day
[10] = low dose group, Vitamin D 30 U/kg intragastrically once a day
[11] = medium dose group, Vitamin D 100 U/kg intragastrically once a day
[12] = medium dose group and high dose group, P<0.01

## CN(C)C(=N)N=C(N)N [metformin, metformin hydrochloride]
[1]; [5]
  ACF AC = 1: 61.5 ± 8.1
  ACF AC = 2: 13.8 ± 3.4
  ACF AC = 3: 4.0 ± 1.2
  ACF AC ≧ 4: 9.7 ± 3.2
  The total number of ACF: 89.0 ± 12.7
[1]; [6]
  ACF AC = 1: 70.4 ± 10.6
  ACF AC = 2: 16.7 ± 3.6
  ACF AC = 3: 6.7 ± 1.7
  ACF AC ≧ 4: 16.5 ± 2.1
  The total number of ACF: 110.3 ± 13.0
[1]
  inhibitory effect on ACF, trend with dose: same trend
[1]; [7]
  ACF AC = 1: 57.0 ± 10.7
  ACF AC = 2: 16.6 ± 1.8
  ACF AC = 3: 5.4 ± 1.6
  ACF AC ≧ 4: 14.8 ± 3.0
  The total number of ACF: 93.8 ± 11.7
[2]; [5]
  Mean number of tumors: 1.6 ± 0.5
  Number of Animals with tumor: 10
  Inhibition rate(%): 42.9%
[2]; [6]
  Mean number of tumors: 2.0 ± 0.7
  Number of Animals with tumor: 10
  Inhibition rate(%): 28.6%
[2]; [8]
  number of tumors, trend with dose: reduced with the increase of dose
[2]; [7]
  Mean number of tumors: 1.8 ± 0.4
  Number of Animals with tumor: 10
  Inhibition rate(%): 35.7%
[3]; end of week 18
  number of tumors, trend with dose: reduced with the increase of dose

## C=C1CC[C@H](O)C/C1=C/C=C1\CCC[C@]2(C)[C@@H]([C@H](C)CCCC(C)C)CC[C@@H]12 [vitamin D3, Vitamin D3]
[1]; [9]
  ACF AC = 1: 61.8 ± 11.1
  ACF AC = 2: 14.9 ± 5.9
  ACF AC = 3: 5.0 ± 1.6
  ACF AC ≧ 4: 9.8 ± 2.2
  The total number of ACF: 91.5 ± 7.2
[1]; [10]
  ACF AC = 1: 80.5 ± 7.6
  ACF AC = 2: 16.1 ± 5.7
  ACF AC = 3: 9.0 ± 2.3
  ACF AC ≧ 4: 20.0 ± 4.1
  The total number of ACF: 125.6 ± 12.1
[1]
  inhibitory effect on ACF, trend with dose: increased with the increase of dose
[1]; [11]
  ACF AC = 1: 67.9 ± 11.8
  ACF AC = 2: 15.9 ± 5.7
  ACF AC = 3: 4.8 ± 3.1
  ACF AC ≧ 4: 16.1 ± 2.9
  The total number of ACF: 104.7 ± 14.3
[2]; [9]
  Mean number of tumors: 1.4 ± 0.8
  Number of Animals with tumor: 8
  Inhibition rate(%): 50.0%
[2]; [10]
  Mean number of tumors: 2.3 ± 0.5
  Number of Animals with tumor: 10
  Inhibition rate(%): 17.9%
[2]; [8]
  inhibition rate for tumor, trend with dose: increased with the increase of dose
[2]; [12]
  number of tumors compared with the model control group: significantly reduced
[2]; [11]
  Mean number of tumors: 1.7 ± 0.7
  Number of Animals with tumor: 10
  Inhibition rate(%): 39.3%
[4]; [9]
  Weight gain: 225.7%
  Body weight Week 18: 328.8 ± 23.6
  Body weight Week 0: 101.5 ± 5.2
[4]; [10]
  Weight gain: 227.7%
  Body weight Week 18: 377.5 ± 27.5
  Body weight Week 0: 100.3 ± 4.1
[4]; [11]
  Weight gain: 235.7%
  Body weight Week 18: 294.3 ± 22.1
  Body weight Week 0: 102.9 ± 5.8
[3]; end of week 18
  inhibition rate for tumor, trend with dose: increased with the increased of dose
[3]; [12]
  tumor number compared with the model control group: significantly reduced

Source: patent publication US9333210B2, “Medicine composition containing vitamin D and metformin” (GUANGDONG TAIHE MEDICINE SCIENCE & TECHNOLOGY CO., LTD, priority 2011, dated 2016)
